These results are taken from US6417225B1, “Prophylactic/therapeutic agents for atherosclerosis” (Chugai Seiyaku Kabushiki Kaisha, priority 1997, dated 2002).

For assay [1], the system named is LDL receptor/apolipoprotein E double hetero-deficient mice. The assay is described as follows: Effect on atherosclerosis in an in vivo atherosclerosis model (3): LDL receptor/Apo E hetero-deficient mice. Particulars: for Inhibitory effect on arteriosclerosis (in words): LDL receptor/Apo E hetero-deficient mice; for Area of Arteriosclerotic lesions (mm^2): female mice, 0.5% in high-fat diet, 6 months, arcus aorta. From the text:
Effect on Atherosclerosis in an in vivo Atherosclerosis Model (3)
In order to evaluate the inhibitory effect of the compound of Example 1 on atherosclerosis in an in vivo atherosclerosis model, LDL receptor/apolipoprotein E double hetero-deficient (LDL receptor/Apo E hetero-deficient) mice were used.
One of the remaining two groups similarly received a high-fat feed containing neither probucol nor the compound of Example 1 and was used as a control and the other one group similarly received a normal, chow diet containing neither probucol nor the compound of Example 1.
After administration of the compound for 6 months, the arcus aorta was removed from each of the animals, transversely sectioned and stained with Sudan IV. The area of arteriosclerotic lesions was determined by an image analysis under an optical microscope. The average of the area of arteriosclerotic lesions in the aucus aortae was calculated for each animal. The number of animals used for the evaluation was 2 for the normal feed group and 5-6 for the other groups.

The test system of assay [2] is LDL receptor-deficient mice. The assay is described as follows: Effect on atherosclerosis in an in vivo atherosclerosis model (2): LDL receptor-deficient mice. Particulars: for Inhibitory effect on arteriosclerosis (in words): LDL receptor-deficient mice; for Area of Arteriosclerotic lesions (mm^2): 0.5% in high-fat diet, 13 weeks, arcus aorta. From the text:
Effect on Atherosclerosis in an in vivo Atherosclerosis Model (2)
In order to evaluate the inhibitory effect of the compound of Example 1 on atherosclerosis in an in vivo atherosclerosis, LDL receptor-deficient mice were used.
One of the remaining two groups similarly received a high-fat diet containing neither probucol nor the compound of Example 1 and was used as a control and the other one group similarly received a normal, chow diet containing neither probucol nor the compound of Example 1.
After administration of the compound for 13 weeks, the arcus aorta was removed from each of the animals, transversely sectioned and stained with Sudan IV. The area of arteriosclerotic lesions was determined by an image analysis under an optical microscope. The average of the area of arteriosclerotic lesions in the aucus aortae was calculated for each animal. The number of animals used for the evaluation was 5 for the normal chow diet group consisting of female mice and 7-9 for the other groups.

In assay [3] the test system is LDL receptor-deficient mice. The assay is described as follows: Effect on formation of xanthoma in an in vivo xanthoma model. Conditions: for Inhibitory effect on formation of xanthomas (in words): LDL receptor-deficient mice; for Xanthoma score: 0.5% in high-fat diet, 13 weeks, forefeet and palpebrae, total score. From the text:
Effect on Formation of Xanthoma in an in vivo Xanthoma Model
In order to evaluate the inhibitory effect of the compound of Example 1 on xanthoma in an in vivo xanthoma model, LDL receptor-deficient mice were used.
One of the remaining two groups similarly received a high-fat feed containing neither probucol nor the compound of Example 1 and was used as a control and the other one group similarly received a normal, chow diet feed containing neither probucol nor the compound of Example 1.
After administration of the compound for 13 weeks, xanthomas were scored in both forefeet and palpebrae based on the appearance thereof and the scores were totalized. The number of animals used for the evaluation was 5 for the normal feed group consisting of female mice and 7-9 for the other groups.

The subject of assay [4] is Watanabe Heritable Hyperlipidemic (WHHL) rabbits. The assay is described as follows: Effect on atherosclerosis in an in vivo atherosclerosis model (1): WHHL rabbits. The arrangement: species or system rabbit. Particulars: for Lesions in arch section (%) / Lesions in the whole aorta (%): 6 months. From the text: Effect on Atherosclerosis in an in vivo Atherosclerosis Model (1)
In order to evaluate the inhibitory effect of the compound of Example 1 on atherosclerosis in an in vivo atherosclerosis model, Watanabe Heritable Hyperlipidemic (WHHL) rabbits were used.
Specifically, 4 groups of 4 or 5 WHHL rabbits (Kbl: 2 to 3-month-old male) were conditioned for a week, and then 3 groups of them received 1% probucol and 0.2% and 0.5% Example 1 compound contained in a normal chow diet, respectively, by limited feeding (40 g/kg) once a day for 6 months. The other one group similarly received the normal chow diet containing neither probucol nor the compound of Example 1 and was used as a control.
After administration of the compound for 6 months, the aorta was removed from each of the animals and visualized to prepare a photograph of the inside of the aortic sample. White fat deposition area which represents arteriosclerotic lesions was determined by the image analysis on the photograph for each of three parts of the aortic sample (arch, chest and abdomen). From the results, the proportions (percentage) of the fat deposition area to the overall area for the arch section and the whole aorta were obtained. Four or five animals were used for each group for the evaluation.

The subject of the next assay is femoral atheroscleroses. Conditions: literature report; cited from earlier work.

Consider `CCCCCC1(CCCCC)Cc2c(cc(C(C)(C)C)c(O)c2C(C)(C)C)O1` [Example 1, 4,6-di-t-butyl-2,2-di-n-pentyl-5-hydroxy-2,3-dihydrobenzofuran], for which the “Inhibitory effect on arteriosclerosis (in words)” value in assay [1] is recorded as “strong inhibitory effect”; in assay [2] it was “exhibits an inhibitory effect”. Besides, the “Area of Arteriosclerotic lesions (mm^2)” value in assay [1] stood at 0.150 mm^2; in assay [2] (female mice), 0.192 mm^2; in assay [2] (male mice), 0.185 mm^2. In addition, in assay [3], the “Inhibitory effect on formation of xanthomas (in words)” value is reported as “strong inhibitory effect”. Besides, the Xanthoma score worked out at 1.25 ± 0.25 in assay [3] (female mice) and 0.29 ± 0.20 in assay [3] (male mice). Also, in assay [4], the “Inhibitory effect on atherosclerosis (in words)” value is “strong inhibitory effect”. The “Lesions in arch section (%)” value in assay [4] (0.2% in normal chow diet) is on record as 65.7 ± 3.7%; in assay [4] (0.5% in normal chow diet), 52.6 ± 7.4 %. Further, the “Lesions in the whole aorta (%)” value in assay [4] (0.2% in normal chow diet) was 44.3 ± 6.8 %; in assay [4] (0.5% in normal chow diet) it was 37.4 ± 5.7 %. Besides, the “Atherosclerosis inhibitory effect compared with probucol (in words)” value in assay [4] (at a half of the dosage of probucol) is “comparable to that of probucol”.

In the case of `CC(C)(Sc1cc(C(C)(C)C)c(O)c(C(C)(C)C)c1)Sc1cc(C(C)(C)C)c(O)c(C(C)(C)C)c1` [Probucol, probucol, reference compound], the “Inhibitory effect on arteriosclerosis (in words)” value in assay [1] and in assay [2] was “not observed” each time. Further, the “Area of Arteriosclerotic lesions (mm^2)” value in assay [1] was 0.451 mm^2; in assay [2] (female mice), 0.245 mm^2; in assay [2] (male mice), 0.376 mm^2. Further, in the assay with femoral atheroscleroses, the “Therapeutic effect on atherosclerosis in clinical tests (in words)” value was “no therapeutic effect”. Besides, the “Inhibitory effect on formation of xanthomas (in words)” value in assay [3] is listed as “not observed”. Further, the Xanthoma score in assay [3] (female mice) is recorded as 3.43 ± 0.30; in assay [3] (male mice) it was 3.13 ± 0.30. For the same compound, the “Lesions in the whole aorta (%)” value in assay [4] (1% in normal chow diet) is reported as 25.2 ± 2.6 %. The “Lesions in arch section (%)” value in assay [4] (1% in normal chow diet, fat deposition area / overall area) stood at 53.9 ± 5.6 %.
